Source: the kinase profiling compilation of Christmann-Franck et al. (2016)

What was measured:
Experiment in all cases: KINOMEscan competition binding
Settings in all cases: compound 10.0 µM
[1] = target: DCLK1 (human) (UniProt O15075)
[2] = target: CAMK2A (human) (UniProt Q9UQM7)
[3] = target: TYRO3 (human) (UniProt Q06418)
[4] = target: ADCK4 (human) (UniProt Q96D53)
[5] = target: CDC42BPB (human) (UniProt Q9Y5S2)
[6] = target: JAK1 JH1 catalytic (human) (UniProt P23458)
[7] = target: MAP4K3 (human) (UniProt Q8IVH8)
[8] = target: CHEK1 (human) (UniProt O14757)
[9] = target: IRAK4 (human) (UniProt Q9NWZ3)
[10] = target: TBK1 (human) (UniProt Q9UHD2)
[11] = target: EIF2AK2 (human) (UniProt P19525)
[12] = target: MAP2K2 (human) (UniProt P36507)
[13] = target: STK33 (human) (UniProt Q9BYT3)
[14] = target: AURKB (human) (UniProt Q96GD4)
[15] = target: PRKX (human) (UniProt P51817)
[16] = target: MAP4K1 (human) (UniProt Q92918)
[17] = target: PLK4 (human) (UniProt O00444)
[18] = target: ALK (human) (UniProt Q9UM73)
[19] = target: CDK5 (human) (UniProt Q00535)
[20] = test system: EGFR (human), P00533 [752-759 del]
[21] = target: ROCK2 (human) (UniProt O75116)
[22] = target: RIOK3 (human) (UniProt O14730)
[23] = target: STK10 (human) (UniProt O94804)
[24] = target: CSNK2A2 (human) (UniProt P19784)
[25] = target: CDK18 (human) (UniProt Q07002)
[26] = target: PIK3CB (human) (UniProt P42338)
[27] = target: CAMK1G (human) (UniProt Q96NX5)
[28] = target: SGK3 (human) (UniProt Q96BR1)
[29] = target: ZAP70 (human) (UniProt P43403)
[30] = target: TRPM6 (human) (UniProt Q9BX84)
[31] = target: TYK2 JH1 catalytic (human) (UniProt P29597)
[32] = target: MAPK15 (human) (UniProt Q8TD08)
[33] = target: ACVR2A (human) (UniProt P27037)
[34] = target: PTK2 (human) (UniProt Q05397)
[35] = target: SIK2 (human) (UniProt Q9H0K1)
[36] = target: TXK (human) (UniProt P42681)
[37] = target: MAPK12 (human) (UniProt P53778)
[38] = target: BLK (human) (UniProt P51451)
[39] = test system: EGFR (human), P00533 [T790M/L858R]
[40] = target: EGFR (human) (UniProt P00533)

Chain of CDK5 (human) (Q00535 whole entry, looked up): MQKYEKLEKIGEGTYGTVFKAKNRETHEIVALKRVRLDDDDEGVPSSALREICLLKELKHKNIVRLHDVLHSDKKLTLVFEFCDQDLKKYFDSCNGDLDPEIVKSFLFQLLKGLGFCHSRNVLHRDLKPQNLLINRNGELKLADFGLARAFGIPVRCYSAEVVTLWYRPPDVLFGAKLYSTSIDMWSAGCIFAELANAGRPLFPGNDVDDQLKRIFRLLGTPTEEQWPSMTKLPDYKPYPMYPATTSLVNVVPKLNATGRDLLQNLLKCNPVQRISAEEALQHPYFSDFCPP
Chain of PLK4 (human) (O00444 whole entry, looked up): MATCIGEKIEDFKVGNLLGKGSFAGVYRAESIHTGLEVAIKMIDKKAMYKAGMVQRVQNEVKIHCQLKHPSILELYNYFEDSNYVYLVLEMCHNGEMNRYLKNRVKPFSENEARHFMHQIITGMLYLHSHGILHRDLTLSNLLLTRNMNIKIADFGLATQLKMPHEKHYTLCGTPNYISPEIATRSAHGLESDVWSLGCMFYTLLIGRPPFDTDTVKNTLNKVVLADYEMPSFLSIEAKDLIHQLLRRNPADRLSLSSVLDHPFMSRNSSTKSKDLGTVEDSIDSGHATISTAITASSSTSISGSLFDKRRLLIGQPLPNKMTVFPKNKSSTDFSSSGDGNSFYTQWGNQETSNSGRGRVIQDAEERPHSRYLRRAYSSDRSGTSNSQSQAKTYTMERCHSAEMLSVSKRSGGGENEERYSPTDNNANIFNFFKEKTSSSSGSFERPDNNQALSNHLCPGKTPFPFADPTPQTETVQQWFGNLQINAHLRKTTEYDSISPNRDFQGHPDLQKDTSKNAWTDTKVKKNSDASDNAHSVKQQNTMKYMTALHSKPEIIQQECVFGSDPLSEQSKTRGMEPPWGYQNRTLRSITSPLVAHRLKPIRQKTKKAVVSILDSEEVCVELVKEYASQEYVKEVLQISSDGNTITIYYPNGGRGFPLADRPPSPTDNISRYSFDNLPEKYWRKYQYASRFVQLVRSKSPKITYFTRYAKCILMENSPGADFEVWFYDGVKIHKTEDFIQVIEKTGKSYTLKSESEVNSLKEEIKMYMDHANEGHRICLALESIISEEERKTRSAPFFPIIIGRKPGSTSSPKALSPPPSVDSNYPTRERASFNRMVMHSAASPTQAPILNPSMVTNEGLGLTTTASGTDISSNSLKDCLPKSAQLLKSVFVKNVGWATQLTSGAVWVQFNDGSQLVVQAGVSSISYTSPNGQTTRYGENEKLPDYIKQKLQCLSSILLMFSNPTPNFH
Chain of SIK2 (human) (Q9H0K1 whole entry, looked up): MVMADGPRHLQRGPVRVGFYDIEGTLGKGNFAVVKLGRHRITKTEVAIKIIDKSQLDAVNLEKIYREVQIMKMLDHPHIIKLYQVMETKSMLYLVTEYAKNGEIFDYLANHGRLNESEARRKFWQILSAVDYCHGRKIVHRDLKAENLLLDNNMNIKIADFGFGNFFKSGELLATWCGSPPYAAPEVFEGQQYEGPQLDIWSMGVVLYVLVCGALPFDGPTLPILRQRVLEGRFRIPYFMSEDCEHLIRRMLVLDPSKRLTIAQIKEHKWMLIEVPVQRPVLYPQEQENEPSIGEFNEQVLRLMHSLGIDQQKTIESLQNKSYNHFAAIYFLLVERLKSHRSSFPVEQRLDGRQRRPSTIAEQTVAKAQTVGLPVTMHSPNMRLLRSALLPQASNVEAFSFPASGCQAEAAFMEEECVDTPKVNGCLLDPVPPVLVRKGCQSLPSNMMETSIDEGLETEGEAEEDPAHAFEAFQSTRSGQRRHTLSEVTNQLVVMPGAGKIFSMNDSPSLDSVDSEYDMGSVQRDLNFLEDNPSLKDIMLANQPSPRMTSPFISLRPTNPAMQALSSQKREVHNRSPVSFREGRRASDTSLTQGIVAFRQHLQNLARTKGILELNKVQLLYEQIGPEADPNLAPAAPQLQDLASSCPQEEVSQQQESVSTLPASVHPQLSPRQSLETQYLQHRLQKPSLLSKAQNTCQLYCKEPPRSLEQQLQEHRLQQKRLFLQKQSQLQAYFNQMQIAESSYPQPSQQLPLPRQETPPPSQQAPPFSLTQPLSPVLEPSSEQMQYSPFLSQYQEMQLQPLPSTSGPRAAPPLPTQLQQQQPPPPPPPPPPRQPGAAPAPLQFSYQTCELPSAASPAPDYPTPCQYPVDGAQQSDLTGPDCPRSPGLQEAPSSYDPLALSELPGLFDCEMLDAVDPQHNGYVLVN
Chain of DCLK1 (human) (O15075 whole entry, looked up): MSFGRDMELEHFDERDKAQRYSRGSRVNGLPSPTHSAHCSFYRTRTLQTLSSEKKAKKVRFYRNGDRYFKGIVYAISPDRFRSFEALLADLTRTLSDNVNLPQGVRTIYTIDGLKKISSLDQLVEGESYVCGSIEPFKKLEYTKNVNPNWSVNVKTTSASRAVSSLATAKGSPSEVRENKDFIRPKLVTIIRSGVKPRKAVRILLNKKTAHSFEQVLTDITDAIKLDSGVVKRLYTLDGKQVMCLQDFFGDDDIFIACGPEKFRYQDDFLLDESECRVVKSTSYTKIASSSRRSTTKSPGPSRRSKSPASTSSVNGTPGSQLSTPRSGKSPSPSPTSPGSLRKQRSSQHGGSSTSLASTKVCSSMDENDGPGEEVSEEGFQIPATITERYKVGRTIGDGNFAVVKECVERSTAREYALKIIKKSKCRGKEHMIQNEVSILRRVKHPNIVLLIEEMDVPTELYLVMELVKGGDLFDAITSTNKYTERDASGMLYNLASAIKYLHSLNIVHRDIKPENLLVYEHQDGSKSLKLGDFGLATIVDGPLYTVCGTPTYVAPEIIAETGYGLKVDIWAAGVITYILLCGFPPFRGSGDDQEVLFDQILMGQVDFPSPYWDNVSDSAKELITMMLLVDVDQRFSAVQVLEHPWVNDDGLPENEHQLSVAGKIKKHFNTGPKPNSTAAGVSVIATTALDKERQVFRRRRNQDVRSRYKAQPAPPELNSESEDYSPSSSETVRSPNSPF
Chain of STK10 (human) (O94804 whole entry, looked up): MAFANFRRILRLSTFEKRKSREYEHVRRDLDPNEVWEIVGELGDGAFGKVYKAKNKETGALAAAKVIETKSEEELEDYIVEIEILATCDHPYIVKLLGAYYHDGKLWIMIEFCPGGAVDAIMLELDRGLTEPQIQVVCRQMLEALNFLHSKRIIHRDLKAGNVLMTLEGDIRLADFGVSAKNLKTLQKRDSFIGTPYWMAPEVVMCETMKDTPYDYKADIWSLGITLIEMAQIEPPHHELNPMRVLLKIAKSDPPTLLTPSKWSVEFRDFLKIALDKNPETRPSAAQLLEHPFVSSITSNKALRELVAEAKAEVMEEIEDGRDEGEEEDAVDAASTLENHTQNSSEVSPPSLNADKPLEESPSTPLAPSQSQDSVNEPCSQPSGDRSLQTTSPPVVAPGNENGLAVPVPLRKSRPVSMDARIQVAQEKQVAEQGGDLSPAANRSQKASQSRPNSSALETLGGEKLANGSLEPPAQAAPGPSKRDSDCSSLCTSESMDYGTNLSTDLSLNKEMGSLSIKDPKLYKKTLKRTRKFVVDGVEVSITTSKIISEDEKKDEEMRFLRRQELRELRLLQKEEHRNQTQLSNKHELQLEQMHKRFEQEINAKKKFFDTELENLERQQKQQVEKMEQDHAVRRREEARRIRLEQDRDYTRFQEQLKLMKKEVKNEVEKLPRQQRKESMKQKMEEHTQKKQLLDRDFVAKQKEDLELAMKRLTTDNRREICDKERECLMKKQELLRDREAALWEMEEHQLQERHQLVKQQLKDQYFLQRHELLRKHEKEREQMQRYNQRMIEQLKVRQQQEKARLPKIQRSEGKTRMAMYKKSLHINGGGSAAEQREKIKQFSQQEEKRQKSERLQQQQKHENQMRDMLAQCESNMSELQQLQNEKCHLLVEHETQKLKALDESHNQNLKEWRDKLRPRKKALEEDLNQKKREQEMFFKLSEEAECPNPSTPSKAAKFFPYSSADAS
Chain of TBK1 (human) (Q9UHD2 whole entry, looked up): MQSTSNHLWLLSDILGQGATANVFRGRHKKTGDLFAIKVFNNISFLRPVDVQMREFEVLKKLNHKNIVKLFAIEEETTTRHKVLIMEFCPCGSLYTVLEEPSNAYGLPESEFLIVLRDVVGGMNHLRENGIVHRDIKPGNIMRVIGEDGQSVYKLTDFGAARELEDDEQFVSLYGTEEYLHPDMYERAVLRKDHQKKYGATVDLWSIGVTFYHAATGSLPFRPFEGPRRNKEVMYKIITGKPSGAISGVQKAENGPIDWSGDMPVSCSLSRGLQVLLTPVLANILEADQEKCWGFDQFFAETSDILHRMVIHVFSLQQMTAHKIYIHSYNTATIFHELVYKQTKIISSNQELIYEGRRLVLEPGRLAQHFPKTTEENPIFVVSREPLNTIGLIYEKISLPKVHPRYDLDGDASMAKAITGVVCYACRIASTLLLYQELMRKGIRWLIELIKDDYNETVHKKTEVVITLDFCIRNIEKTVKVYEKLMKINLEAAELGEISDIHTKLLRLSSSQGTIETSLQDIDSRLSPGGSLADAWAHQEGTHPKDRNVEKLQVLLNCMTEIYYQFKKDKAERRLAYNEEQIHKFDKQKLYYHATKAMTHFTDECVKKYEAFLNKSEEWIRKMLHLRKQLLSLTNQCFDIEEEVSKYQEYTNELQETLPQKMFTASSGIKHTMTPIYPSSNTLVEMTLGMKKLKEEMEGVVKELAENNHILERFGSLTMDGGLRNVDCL
Chain of CSNK2A2 (human) (P19784 whole entry, looked up): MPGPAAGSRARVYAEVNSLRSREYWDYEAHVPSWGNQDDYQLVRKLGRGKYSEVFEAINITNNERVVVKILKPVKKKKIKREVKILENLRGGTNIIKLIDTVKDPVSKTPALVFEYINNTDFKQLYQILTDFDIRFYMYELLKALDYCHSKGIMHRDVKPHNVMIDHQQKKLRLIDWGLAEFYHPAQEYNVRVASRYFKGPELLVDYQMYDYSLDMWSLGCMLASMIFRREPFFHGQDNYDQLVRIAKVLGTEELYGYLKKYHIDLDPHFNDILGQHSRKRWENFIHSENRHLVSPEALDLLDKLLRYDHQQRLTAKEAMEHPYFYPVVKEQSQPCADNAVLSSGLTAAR

SMILES	kinase still bound, per cent of control [1]	kinase still bound, per cent of control [2]	kinase still bound, per cent of control [4]	kinase still bound, per cent of control [5]	kinase still bound, per cent of control [6]	kinase still bound, per cent of control [8]	kinase still bound, per cent of control [10]	kinase still bound, per cent of control [11]	kinase still bound, per cent of control [12]	kinase still bound, per cent of control [13]	kinase still bound, per cent of control [15]	kinase still bound, per cent of control [16]	kinase still bound, per cent of control [17]	kinase still bound, per cent of control [19]	kinase still bound, per cent of control [21]	kinase still bound, per cent of control [22]	kinase still bound, per cent of control [23]	kinase still bound, per cent of control [24]	kinase still bound, per cent of control [25]	kinase still bound, per cent of control [26]	also measured
COc1cc2ncn(-c3cc(OCc4ccccc4C(F)(F)F)c(C(N)=O)s3)c2cc1OC	49%	76%	71%	64%	100%	100%	83%	78%	85%	67%	98%	44%	29%	100%	100%	4.2%	0%	17%	83%	54%	kinase still bound, per cent of control [3]: 72%; kinase still bound, per cent of control [7]: 32%; kinase still bound, per cent of control [9]: 58%; kinase still bound, per cent of control [14]: 34%; kinase still bound, per cent of control [18]: 100%; kinase still bound, per cent of control [20]: 100%; kinase still bound, per cent of control [27]: 72%; kinase still bound, per cent of control [28]: 83%; kinase still bound, per cent of control [29]: 95%; kinase still bound, per cent of control [30]: 100%; kinase still bound, per cent of control [31]: 59%; kinase still bound, per cent of control [32]: 46%; kinase still bound, per cent of control [33]: 79%; kinase still bound, per cent of control [34]: 83%; kinase still bound, per cent of control [35]: 26%; kinase still bound, per cent of control [36]: 72%
C[C@@H](Oc1cc(-c2cnn(C3CCNCC3)c2)cnc1N)c1c(Cl)ccc(F)c1Cl	2%	100%	3.4%	62%	0.45%	91%	8.7%	43%	54%	26%	94%	4.6%	0.1%	100%	8%	3.4%	0%	55%	94%	99%	kinase still bound, per cent of control [9]: 24%; kinase still bound, per cent of control [27]: 76%; kinase still bound, per cent of control [28]: 100%; kinase still bound, per cent of control [29]: 29%; kinase still bound, per cent of control [30]: 79%; kinase still bound, per cent of control [31]: 14%; kinase still bound, per cent of control [32]: 80%; kinase still bound, per cent of control [33]: 30%; kinase still bound, per cent of control [34]: 0%; kinase still bound, per cent of control [35]: 12%; kinase still bound, per cent of control [36]: 5.9%
CCN(CC)CCCCNc1ncc2c(n1)N(C)C(=O)N(c1c(Cl)c(OC)cc(OC)c1Cl)C2	100%	100%	100%	100%	100%	100%	100%	100%	100%	100%	100%	100%	100%	100%	100%	100%	100%	100%	100%	100%	kinase still bound, per cent of control [3]: 100%; kinase still bound, per cent of control [7]: 100%; kinase still bound, per cent of control [37]: 100%; kinase still bound, per cent of control [14]: 100%; kinase still bound, per cent of control [38]: 100%; kinase still bound, per cent of control [18]: 100%; kinase still bound, per cent of control [20]: 100%; kinase still bound, per cent of control [39]: 100%; kinase still bound, per cent of control [40]: 100%; kinase still bound, per cent of control [27]: 100%; kinase still bound, per cent of control [29]: 100%; kinase still bound, per cent of control [31]: 100%; kinase still bound, per cent of control [32]: 100%; kinase still bound, per cent of control [33]: 100%; kinase still bound, per cent of control [34]: 100%; kinase still bound, per cent of control [35]: 100%; kinase still bound, per cent of control [36]: 100%
